Measured values as given in US20060004028A1, “Novel PARP inhibitor” (MOCHIDA PHARMACEUTICAL CO., LTD., priority 2002, published 2006).

How the values were obtained:
U937 cells = test: Inhibitory effect against active oxygen-induced cell injury with U937 cells; assay type: cell-based; settings: propidium iodide fluorescence
Procedure: U937 cells were suspended in RPMI 1640 without serum, and were seeded at a concentration of 1×10^4 cells/50 μL/well in a solid assay plate (produced by Corning, black, tissue culture treated, Type: 3916). After adding 1 μL/well of test compound solution in DMSO, 50 μL/well of 20 mM hydrogen peroxide solution was added, followed by incubation at 37° C. for 3 hours in an atmosphere of 5% CO2. Then, 2 μL/well of 1.5 mM propidium iodide solution was added and incubation was further carried out at 37° C. for 1 hour. The fluorescence was measured with a fluorescence plate reader ARVO (excitation wavelength: 530 nm, fluorescence wavelength: 620 nm) to investigate hydrogen peroxide solution-induced necrosis inhibition.

PARP = target: T1, PARP (Homo sapiens, UniProt P09874); test: Measurement of PARP inhibitory activity (PARP Inhibition Assay kit, ADP-ribosylated histone); assay type: biochemical; settings: HSA PARP Enzyme, histone-coated plate, absorbance at 450 nm
T1 construct: purchased Travigen (Trevigen) 4669-96-K
Procedure: PARP activity is determined by measuring the amount of ADP-ribosylated histone protein applied onto an assay plate according to the manual of a measurement kit “PARP Inhibition Assay” (produced by Travigen, catalog number: 4669-96-K). Specifically, 25 μL/well of “2×PARP cocktail” (containing 800 μM of NAD, 50 μM of biotinylated NAD, and denatured DNA) was added to each well of assay plates (96-well multiplate) previously coated with histone protein. Further added was 12.5 μL/well of test compound diluted with “PARP Buffer” (50 mM Tris-hydrochloric acid buffer (pH 8.0) containing 25 mM of MgCl2) and 12.5 μL/well (final concentration: 0.3 unit/50 μL/well) of “HSA PARP Enzyme” diluted with “PARP Buffer” in that order. The mixture was allowed to react at room temperature for 30 minutes. Enzyme reaction of PARP was suspended by discarding the reaction solution and rinsing with a phosphate buffer. Then, 50 μL/well of “Strep-HRP” (streptavidin-labeled horseradish peroxidase) was added and allowed to react at 37° C. for 20 to 30 minutes to bind to biotin-labeled ADP-ribosylated histone. After the reaction solution was discarded, resultings were rinsed with a phosphate buffer, and 50 μL/well of calorimetric substrate TACS-Sapphire was added to the mixture to react at room temperature for 5 to 10 minutes in the dark.
The reaction was terminated by adding 50 μL/well of 0.2 N hydrochloric acid solution, and the absorbance at 450 nm was measured with a microplate reader.

[1] = Homo sapiens, U-937, hydrogen peroxide-induced necrosis

T1 sequence (P09874 whole entry): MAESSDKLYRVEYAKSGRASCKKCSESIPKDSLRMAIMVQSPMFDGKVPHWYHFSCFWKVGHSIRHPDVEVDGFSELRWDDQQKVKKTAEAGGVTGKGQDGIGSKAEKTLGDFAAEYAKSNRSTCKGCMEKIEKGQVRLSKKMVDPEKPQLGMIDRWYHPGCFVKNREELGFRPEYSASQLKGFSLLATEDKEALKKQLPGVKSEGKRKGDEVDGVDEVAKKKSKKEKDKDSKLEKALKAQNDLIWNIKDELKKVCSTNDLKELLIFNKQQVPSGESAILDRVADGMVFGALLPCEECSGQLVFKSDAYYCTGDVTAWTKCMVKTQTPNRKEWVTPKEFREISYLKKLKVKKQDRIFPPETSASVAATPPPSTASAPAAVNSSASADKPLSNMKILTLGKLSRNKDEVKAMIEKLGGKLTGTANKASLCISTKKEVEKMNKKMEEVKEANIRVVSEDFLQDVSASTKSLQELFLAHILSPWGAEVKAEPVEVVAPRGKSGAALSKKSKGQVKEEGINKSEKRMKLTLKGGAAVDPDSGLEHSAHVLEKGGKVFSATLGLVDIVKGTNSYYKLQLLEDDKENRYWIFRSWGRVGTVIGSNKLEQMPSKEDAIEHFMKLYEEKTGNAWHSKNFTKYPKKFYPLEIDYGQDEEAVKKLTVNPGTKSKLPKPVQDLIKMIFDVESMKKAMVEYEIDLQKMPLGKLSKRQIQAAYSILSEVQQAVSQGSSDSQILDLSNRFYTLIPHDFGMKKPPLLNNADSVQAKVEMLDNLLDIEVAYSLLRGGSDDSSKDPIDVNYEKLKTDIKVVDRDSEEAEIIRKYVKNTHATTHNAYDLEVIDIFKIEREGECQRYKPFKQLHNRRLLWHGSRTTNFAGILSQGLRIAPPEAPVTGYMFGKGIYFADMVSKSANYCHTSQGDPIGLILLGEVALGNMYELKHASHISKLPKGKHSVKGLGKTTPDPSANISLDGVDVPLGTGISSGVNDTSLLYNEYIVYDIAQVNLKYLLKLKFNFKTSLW

melting point | IC50 (PARP) | Compound | IC50 (U937 cells; [1]) | IC50 (U937 cells; hydrogen peroxide-induced necrosis)
260.3 to 261.6 °C | – | COc1ccc(C2NC(=O)c3cccc4c3N2CCC4=NO)cc1F (stereo not shown) [Example 66, 3-(3-fluoro-4-methoxyphenyl)-7-hydroxyimino-6,7-dihydro-3H,5H-pyrido[3,2,1-ij]quinazoline-1(2H)-one] | 1700 nM | –
139.7 to 145.9 °C | 58 nM | COc1ccc(C2NC(=O)c3cccc4c3N2CCC4N)cc1 (stereo not shown) [Example 4, 7-amino-3-(4-methoxyphenyl)-6,7-dihydro-3H,5H-pyrido[3,2,1-ij]quinazolinone-1(2H)-one] | 610 nM | –
198.8 to 209.3 °C | 240 nM | O=C1CCN2c3c1cccc3C(=O)NC2c1ccc([N+](=O)[O-])cc1 (stereo not shown) [Example 17, 3-(4-nitrophenyl)-6,7-dihydro-3H,5H-pyrido[3,2,1-ij]quinazoline-1,7(2H)-dione] | 1200 nM | –
– | 110 nM | Mixture of (3S,7S)-7-amino-3-(4-bromophenyl)-6,7-dihydro-3H,5H-pyrido[3,2,1-ij]quinazoline-1(2H)-one and (3R,7R)-7-amino-3-(4-bromophenyl)-6,7-dihydro-3H,5H-pyrido[3,2,1-ij]quinazoline-1(2H)-one [Example 123] | – | 300 nM
